This assay relates to BDF1 mice, P388 leukemia ip, median survival T/C. The experiment in a line: NCI In Vivo Anticancer Drug Screen. Data for tumor model P388 Leukemia (intraperitoneal) in B6D2F1 (BDF1) mice. As to conditions: endpoint: median survival time, higher = longer survival. An outline of the steps:
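T/C = treated-group survival ÷ vehicle-control survival; tumour transplanted into mice before dosing.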

Where [1] appears, read: dose: 100.0 mg/kg/injection, schedule: Q04DX003 (ip), vehicle: saline.
Setting [2] is: dose: 100.0 mg/kg/injection, schedule: Q01DX001 (ip), vehicle: Klucel (hydroxypropylcellulose) (HPC).
Setting [3] is: dose: 100.0 mg/kg/injection, schedule: Q01DX009 (ip), vehicle: Klucel (hydroxypropylcellulose) (HPC).
Where [4] appears, read: dose: 200.0 mg/kg/injection, schedule: Q01DX001 (ip), vehicle: Klucel (hydroxypropylcellulose) (HPC).
Setting [5] is: dose: 200.0 mg/kg/injection, schedule: Q01DX009 (ip), vehicle: Klucel (hydroxypropylcellulose) (HPC).
The mark [6] stands for this setting: dose: 400.0 mg/kg/injection, schedule: Q01DX001 (ip), vehicle: Klucel (hydroxypropylcellulose) (HPC).
[7] abbreviates: dose: 25.0 mg/kg/injection, schedule: Q01DX009 (ip), vehicle: saline with Tween-80.
[8] abbreviates: dose: 50.0 mg/kg/injection, schedule: Q01DX009 (ip), vehicle: saline with Tween-80.
Setting [9] is: dose: 100.0 mg/kg/injection, schedule: Q01DX009 (ip), vehicle: saline with Tween-80.
Where [10] appears, read: dose: 100.0 mg/kg/injection, schedule: Q04DX003 (ip), vehicle: saline with Tween-80.
Where [11] appears, read: dose: 200.0 mg/kg/injection, schedule: Q04DX003 (ip), vehicle: saline with Tween-80.
Where [12] appears, read: dose: 400.0 mg/kg/injection, schedule: Q04DX003 (ip), vehicle: saline with Tween-80.
[13] abbreviates: dose: 200.0 mg/kg/injection, schedule: Q01DX009 (ip), vehicle: saline with Tween-80.

Structures are written as SMILES. Where “and” joins values, the source holds several entries; their conditions need not be identical. Equal entries are not always repeated. Inconclusive results and toxic doses are left out.

Regarding `c1ccncc1`, the T/C under setting [1] is 96 % of control; the T/C (dose: 200.0 mg/kg/injection, schedule: Q04DX003 (ip), vehicle: saline) is 102 % of control; the T/C (dose: 400.0 mg/kg/injection, schedule: Q04DX003 (ip), vehicle: saline) is 105 % of control.

Consider `CC(=O)NC(Cc1ccc(N(CCCl)CCCl)cc1)C(=O)NC(CC(C)C)C(=O)O` (configuration not stated), for which the T/C (dose: 20.0 mg/kg/injection, schedule: Q04DX003 (ip), vehicle: other) was 152 % of control; the T/C (dose: 40.0 mg/kg/injection, schedule: Q04DX003 (ip), vehicle: other) is 203 % of control; the T/C (dose: 80.0 mg/kg/injection, schedule: Q04DX003 (ip), vehicle: other) is 239 % of control; the T/C (dose: 160.0 mg/kg/injection, schedule: Q04DX003 (ip), vehicle: other) is 104 % of control.

For the molecule `COc1ccc(Cc2ccccc2)c(O)c1`, the T/C is, setting by setting: (dose: 50.0 mg/kg/injection, schedule: Q01DX009 (ip), vehicle: other) 108 % of control; (dose: 100.0 mg/kg/injection, schedule: Q01DX009 (ip), vehicle: other) 104 % of control; (dose: 100.0 mg/kg/injection, schedule: Q04DX003 (ip), vehicle: other) 109 % of control; (dose: 200.0 mg/kg/injection, schedule: Q01DX009 (ip), vehicle: other) 116 % of control; (dose: 200.0 mg/kg/injection, schedule: Q04DX003 (ip), vehicle: other) 104 % of control; (dose: 400.0 mg/kg/injection, schedule: Q04DX003 (ip), vehicle: other) 109 % of control.

With `O=C1c2ccccc2CCC1(Br)C(Br)c1ccccc1` (configuration not stated), the T/C under setting [2] was 100 % of control; the T/C under setting [3] is 100 % of control; the T/C (dose: 100.0 mg/kg/injection, schedule: Q04DX003 (ip), vehicle: Klucel (hydroxypropylcellulose) (HPC)) is 113 % of control; the T/C (dose: 130.0 mg/kg/injection, schedule: Q01DX001 (ip), vehicle: Klucel (hydroxypropylcellulose) (HPC)) is 90 % of control; the T/C (dose: 133.0 mg/kg/injection, schedule: Q01DX001 (ip), vehicle: Klucel (hydroxypropylcellulose) (HPC)) was 100 % of control; the T/C under setting [4] is 100 % of control and 109 % of control. Besides, the T/C reads like this: under setting [5], 100 % of control; (dose: 200.0 mg/kg/injection, schedule: Q04DX003 (ip), vehicle: Klucel (hydroxypropylcellulose) (HPC)) 113 % of control; (dose: 300.0 mg/kg/injection, schedule: Q01DX001 (ip), vehicle: Klucel (hydroxypropylcellulose) (HPC)) 95 % of control and 100 % of control; under setting [6], 112 % of control; (dose: 400.0 mg/kg/injection, schedule: Q01DX009 (ip), vehicle: Klucel (hydroxypropylcellulose) (HPC)) 100 % of control; (dose: 400.0 mg/kg/injection, schedule: Q04DX003 (ip), vehicle: Klucel (hydroxypropylcellulose) (HPC)) 121 % of control.

For the molecule `O=S(=O)(c1ccccc1)c1nn2nnnc2c2ccccc12`, the T/C runs as follows: under setting [7], 86 % of control; under setting [8], 94 % of control; under setting [9], 95 % of control.

Consider `O=C1NC(=O)C(c2ccccc2Cl)N1` (configuration not stated), for which the T/C runs as follows: under setting [2], 104 % of control; under setting [4], 112 % of control; under setting [6], 112 % of control.

Turning to `OCC(O)C(O)C(O)C(O)c1nc2ccccc2[nH]1` (configuration not stated), the T/C was 119 % of control (dose: 50.0 mg/kg/injection, schedule: Q04DX003 (ip), vehicle: saline with Tween-80); 97 % of control under setting [10]; 95 % of control under setting [11]; 103 % of control under setting [12].

For `NNC(=S)N/N=C/c1ccc([N+](=O)[O-])s1`, the T/C was 110 % of control under setting [3] and 112 % of control under setting [5].

Take `CC(=O)NC1CCCN(O)C(=O)/C=C(/C)CCOC(=O)C(NC(C)=O)CCCN(O)C(=O)/C=C(/C)CCOC(=O)C(NC(C)=O)CCCN(O)C(=O)/C=C(/C)CCOC1=O.[Fe]` (configuration not stated): the T/C by setting is: (dose: 12.5 mg/kg/injection, schedule: Q01DX009 (ip), vehicle: Klucel (hydroxypropylcellulose) (HPC)) 86 % of control; (dose: 25.0 mg/kg/injection, schedule: Q01DX009 (ip), vehicle: Klucel (hydroxypropylcellulose) (HPC)) 92 % of control; (dose: 50.0 mg/kg/injection, schedule: Q01DX009 (ip), vehicle: Klucel (hydroxypropylcellulose) (HPC)) 99 % of control.

On to `COc1ccc(C(=O)CC(C(=O)O)c2ccc3c(c2)OCO3)cc1OC` (configuration not stated), for which the T/C runs as follows: under setting [9], 109 % of control; under setting [13], 100 % of control; (dose: 400.0 mg/kg/injection, schedule: Q01DX009 (ip), vehicle: saline with Tween-80) 104 % of control.

In the case of `O=c1ccccc(Br)c1O`, the T/C by setting is: (dose: 25.0 mg/kg/injection, schedule: Q01DX001 (ip), vehicle: Klucel (hydroxypropylcellulose) (HPC)) 110 % of control; under setting [2], 121 % of control.

On to `COC(=O)CCCc1ccc(OC)c(OC)c1`, for which the T/C is, setting by setting: (dose: 12.5 mg/kg/injection, schedule: Q01DX009 (ip), vehicle: saline with Tween-80) 96 % of control; under setting [7], 100 % of control; under setting [8], 97 % of control and 123 % of control; under setting [9], 97 % of control and 113 % of control; under setting [13], 105 % of control.

As to `O=C(Nc1ccccc1C(F)(F)F)Oc1ccc(Cl)cc1Cl`, the T/C is, setting by setting: under setting [10], 122 % of control; under setting [11], 109 % of control; under setting [12], 118 % of control.

For `O=C1c2cc(Cl)ccc2-c2c(NC(=O)C(Cl)Cl)cc(Cl)cc21`, the T/C reads like this: under setting [10], 104 % of control; under setting [11], 113 % of control; under setting [12], 104 % of control.

On to `C[C@@H]1CCC[C@@H](NC(=O)N(CCCl)N=O)C1`, for which the T/C (dose: 9.37 mg/kg/injection, schedule: Q01DX009 (ip), vehicle: Klucel (hydroxypropylcellulose) (HPC)) was 151 % of control; the T/C (dose: 18.75 mg/kg/injection, schedule: Q01DX009 (ip), vehicle: Klucel (hydroxypropylcellulose) (HPC)) is 157 % of control; the T/C (dose: 37.5 mg/kg/injection, schedule: Q01DX009 (ip), vehicle: Klucel (hydroxypropylcellulose) (HPC)) is 252 % of control; the T/C (dose: 75.0 mg/kg/injection, schedule: Q01DX009 (ip), vehicle: Klucel (hydroxypropylcellulose) (HPC)) was 120 % of control.

On to `OCC(O)C(O)C(O)CO` (configuration not stated), for which the T/C (dose: 100.0 mg/kg/injection, schedule: Q01DX010 (ip), vehicle: saline) was 100 % of control and the T/C (dose: 400.0 mg/kg/injection, schedule: Q01DX010 (ip), vehicle: saline) is 100 % of control.

Take `COc1cc2c(c(OC)c1OC)-c1cc3c(cc1[C@@H](O)[C@@H]1COC(=O)[C@@H]21)OCO3`: the T/C by setting is: (dose: 6.2 mg/kg/injection, schedule: Q01DX009 (ip), vehicle: saline) 90 % of control; (dose: 9.3 mg/kg/injection, schedule: Q01DX009 (ip), vehicle: saline) 86 % of control; (dose: 14.0 mg/kg/injection, schedule: Q01DX009 (ip), vehicle: saline) 109 % of control; (dose: 21.0 mg/kg/injection, schedule: Q01DX009 (ip), vehicle: saline) 100 % of control.

Take `CCN(c1ccccc1)c1cc2c(cc1[N+](=O)[O-])no[n+]2[O-]`: the T/C runs as follows: (dose: 30.0 mg/kg/injection, schedule: Q01DX009 (ip), vehicle: saline with Tween-80) 123 % of control; (dose: 60.0 mg/kg/injection, schedule: Q01DX009 (ip), vehicle: saline with Tween-80) 113 % of control.

Take `COc1cccc2c1C(=O)c1c(O)c3c(c(O)c1C2=O)CC(O)(C(=O)CO)CC3OC1CC(N)C(O)C(C)O1` (configuration not stated) (tested in a mixture with another compound): the T/C is, setting by setting: (dose: 1.56 mg/kg/injection, schedule: Q01DX009 (ip), vehicle: other) 118 % of control; (dose: 3.13 mg/kg/injection, schedule: Q01DX009 (ip), vehicle: other) 106 % of control; (dose: 6.25 mg/kg/injection, schedule: Q01DX009 (ip), vehicle: other) 93 % of control; (dose: 12.5 mg/kg/injection, schedule: Q01DX009 (ip), vehicle: other) 108 % of control.

Regarding `CCCN(CCC)CCCOC(=O)c1ccc(N)cc1`, the T/C (dose: 25.0 mg/kg/injection, schedule: Q01DX009 (ip), vehicle: saline) is 100 % of control; the T/C (dose: 50.0 mg/kg/injection, schedule: Q01DX009 (ip), vehicle: saline) is 96 % of control; the T/C (dose: 50.0 mg/kg/injection, schedule: Q04DX003 (ip), vehicle: saline) was 100 % of control; the T/C (dose: 100.0 mg/kg/injection, schedule: Q01DX009 (ip), vehicle: saline) was 89 % of control; the T/C under setting [1] was 95 % of control.
